Test results taken from US8993756B2 (Merck Sharp & Dohme Corp., priority 2011, dated 2015).

Tests used:
JAK3 = JAK3 (Homo sapiens (Human), UniProt P52333); assay: Jak Biochemical HTRF Assay (JAK3); details: recombinant GST-tagged catalytic domain, [ATP] 2.9 μM
Protocol: (§1) Biological Assays Jak Biochemical HTRF Assay Protocol
The ability of compounds to inhibit the activity of JAK1, JAK2, JAK3, and Tyk2 was measured using a recombinant purified GST-tagged catalytic domain for each enzyme (Invitrogen JAK1 #M4290, JAK2 #M4290, JAK3 #M4290, Tyk2 #M4290) in an HTRF format biochemical assay. […] Subsequent reagent additions employed an Agilent Bravo. […] After equilibration, 2 μL of 10×ATP in 1× assay buffer was added to initiate the kinase reaction and the plates were shaken and then incubated at room temperature for 120 minutes. At the end of the incubation, 20 μL of 2× stop buffer (streptavidin-Dylight 650 (Thermo #84547B100 mL), Eu-tagged pY20 antibody (Perkin Elmer #AD0067), EDTA, HEPES, and Triton) was added to quench the reaction. […] After normalization to untreated controls, the percent inhibition of the HTRF signal at each compound concentration was calculated. The plot of percent inhibition versus the log of compound concentration was fit with a 4-parameter dose response equation to calculate IC50 values.

JAK2 = JAK2 (Homo sapiens (Human), UniProt O60674); assay: Jak Biochemical HTRF Assay (JAK2); details: recombinant GST-tagged catalytic domain, [ATP] 8.5 μM
Protocol: as §1
The ability of compounds to inhibit the activity of JAK1, JAK2, JAK3, and Tyk2 was measured using a recombinant purified GST-tagged catalytic domain for each enzyme (Invitrogen JAK1 #M4290, JAK2 #M4290, JAK3 #M4290, Tyk2 #M4290) in an HTRF format biochemical assay. […] The basic assay protocol is as follows: First, 250 nL of diluted compounds in DMSO were dispensed into the wells of a dry 384-well Black plate (Greiner #781076) using a Labcyte Echo 555 acoustic dispenser. Subsequent reagent additions employed an Agilent Bravo. Next, 18 μL of 1.11× enzyme and 1.11× substrate in 1× assay buffer (Invitrogen kinase buffer # PV3189, 2 mM DTT, 0.05% BSA) were added to the wells and shaken and then preincubated for 30 minutes at room temperature to allow compound binding to equilibrate. After equilibration, 2 μL of 10×ATP in 1× assay buffer was added to initiate the kinase reaction and the plates were shaken and then incubated at room temperature for 120 minutes. At the end of the incubation, 20 μL of 2× stop buffer (streptavidin-Dylight 650 (Thermo #84547B100 mL), Eu-tagged pY20 antibody (Perkin Elmer #AD0067), EDTA, HEPES, and Triton) was added to quench the reaction. Plates were shaken and centrifuged and then incubated 60 minutes at room temperature and then read on a Perkin Elmer Envision (λex=337 nm, λem=665 and 615 nm, TRF delay time=20 μs). HTRF signal=10,000*665 nm reading 615 nm reading. After normalization to untreated controls, the percent inhibition of the HTRF signal at each compound concentration was calculated. The plot of percent inhibition versus the log of compound concentration was fit with a 4-parameter dose response equation to calculate IC50 values.

Chain of JAK3 (P52333 822-1111): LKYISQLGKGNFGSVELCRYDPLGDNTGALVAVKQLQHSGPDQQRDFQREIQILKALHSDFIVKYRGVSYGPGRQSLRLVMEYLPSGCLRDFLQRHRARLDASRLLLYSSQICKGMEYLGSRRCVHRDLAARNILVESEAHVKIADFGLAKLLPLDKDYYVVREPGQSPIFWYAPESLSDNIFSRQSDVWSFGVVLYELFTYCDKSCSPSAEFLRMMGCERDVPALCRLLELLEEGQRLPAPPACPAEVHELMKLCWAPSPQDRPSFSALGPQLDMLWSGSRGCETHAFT
Chain of JAK2 (O60674 849-1124): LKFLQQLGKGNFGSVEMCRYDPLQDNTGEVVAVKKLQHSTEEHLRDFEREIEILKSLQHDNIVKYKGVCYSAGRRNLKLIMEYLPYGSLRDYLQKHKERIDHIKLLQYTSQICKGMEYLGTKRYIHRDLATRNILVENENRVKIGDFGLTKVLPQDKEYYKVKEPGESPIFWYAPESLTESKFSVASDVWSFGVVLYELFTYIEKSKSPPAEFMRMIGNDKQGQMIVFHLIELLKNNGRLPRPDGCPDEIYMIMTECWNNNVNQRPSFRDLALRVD

Row | SMILES | IC50 (JAK3) [nM] | IC50 (JAK2) [nM] | IC50 (JAK3; given as range class) [nM] | IC50 (JAK2; given as range class) [nM]
1 | C/C=C/S(=O)(=O)Nc1cccc(-c2ncnc3[nH]cc(C(=O)OCC)c23)c1 [Example 10-2, ethyl 4-(3-{[(1E)-prop-1-en-1-ylsulfonyl]amino}phenyl)-7H-pyrrolo[2,3-d]pyrimidine-5-carboxylate] | 8.2 | > 1500 |  | 
2 | C=C(C)C(=O)Nc1cccc(-c2ncnc3[nH]cc(-c4cccnc4)c23)c1 [Example 21-4, N-(3-(5-(pyridin-3-yl)-7H-pyrrolo[2,3-d]pyrimidin-4-yl)phenyl)methacrylamide] | 9.7 | > 1500 |  | 
3 | CCOC(=O)c1c[nH]c2ncnc(-c3ccccc3C)c12 [Example 1-38, ethyl 4-(2-methylphenyl)-7H-pyrrolo[2,3-d]pyrimidine-5-carboxylate] |  |  | 10 to 500 | > 500
4 | CCOC(=O)c1c[nH]c2ncnc(-c3cccc(NC(=O)C4=COCC4)c3)c12 [Example 5-40] |  |  | 10 to 500 | > 500
5 | C=C(C)C(=O)Nc1cccc(-c2ncnc3[nH]cc(-c4nc(C)co4)c23)c1 [Example 29, N-(3-(5-(4-Methyloxazol-2-yl)-7H-pyrrolo[2,3-d]pyrimidin-4-yl)phenyl)methacrylamide] |  |  | 10 to 500 | > 500
6 | CCOC(=O)c1c[nH]c2ncnc(-c3ccc4c(c3)CNC4=O)c12 [Example 1-65, ethyl 4-(1-oxo-2,3-dihydro-1H-isoindol-5-yl)-7H-pyrrolo[2,3-d]pyrimidine-5-carboxylate] |  |  | 10 to 500 | 10 to 500
7 | CCOC(=O)c1c[nH]c2ncnc(-c3cn[nH]c3)c12 [Example 1-51, ethyl 4-(1H-pyrazol-4-yl)-7H-pyrrolo[2,3-d]pyrimidine-5-carboxylate] |  |  | 10 to 500 | > 500
8 | CCOC(=O)c1c[nH]c2ncnc(-c3ccc(OC)cc3)c12 [Example 1-15, ethyl 4-(4-methoxyphenyl)-7H-pyrrolo[2,3-d]pyrimidine-5-carboxylate] | 5.7 | 134 |  | 
9 | CCOC(=O)c1c[nH]c2ncnc(-c3ccc4c(c3)CCN(C(=O)OC(C)(C)C)C4)c12 [Example 1-74, tent-butyl 6-[5-(ethoxycarbonyl)-7H-pyrrolo[2,3-d]pyrimidin-4-yl]-3,4-dihydroisoquinoline-2(1H)-carboxylate] |  |  | 10 to 500 | > 500
10 | CCOC(=O)c1c[nH]c2ncnc(-c3ccc(CC#N)nc3)c12 [Example 1-104, ethyl 4-[6-(cyanomethyl)pyridin-3-yl]-7H-pyrrolo[2,3-d]pyrimidine-5-carboxylate] |  |  | 10 to 500 | > 500
11 | CCOC(=O)c1c[nH]c2ncnc(-c3ccc(S(C)(=O)=O)cc3)c12 [Example 1-11, ethyl 4-[4-(methylsulfonyl)phenyl]-7H-pyrrolo[2,3-d]pyrimidine-5-carboxylate] |  |  | 10 to 500 | > 500
12 | COc1ccccc1-c1c[nH]c2ncnc(-c3cccc(C(=O)N(C)C)c3)c12 [Example 33-5, 3-[5-(2-methoxyphenyl)-7H-pyrrolo[2,3-d]pyrimidin-4-yl]-N,N-dimethylbenzamide] |  |  | 10 to 500 | > 500
13 | CCOC(=O)c1c[nH]c2ncnc(-c3ccc4[nH]nc(C(F)(F)F)c4c3)c12 [Example 1-72, ethyl 4-[3-(trifluoromethyl)-1H-indazol-5-yl]-7H-pyrrolo[2,3-d]pyrimidine-5-carboxylate] |  |  | 10 to 500 | > 500
14 | CCOC(=O)c1c[nH]c2ncnc(-c3ccc(-n4cccn4)cc3)c12 [Example 1-94, ethyl 4-[4-(1H-pyrazol-1-yl)phenyl]-7H-pyrrolo[2,3-d]pyrimidine-5-carboxylate] | 7.5 | 121 |  | 
15 | C=C(CN(C)C)C(=O)Nc1cccc(-c2ncnc3[nH]cc(C(=O)OCC)c23)c1 [Example 14, Ethyl-4-[3-({2-[(dimethylamino)methyl]acryloyl}amino)phenyl]-7H-pyrrolo[2,3-d]pyrimidine-5-carboxylate] | 0.066 | > 1500 |  | 
16 | C=C(C)C(=O)Nc1cccc(-c2ncnc3[nH]cc(-c4nnc(C)s4)c23)c1 [Example 27, N-(3-(5-(5-Methyl-1,3,4-thiadiazol-2-yl)-7H-pyrrolo[2,3-d]pyrimidin-4-yl)phenyl)methacrylamide] |  |  | 10 to 500 | > 500
17 | CCOC(=O)c1c[nH]c2ncnc(-c3ccnc(OC)c3)c12 [Example 1-89, ethyl 4-(2-methoxypyridin-4-yl)-7H-pyrrolo[2,3-d]pyrimidine-5-carboxylate] |  |  | 10 to 500 | > 500
18 | COc1ccccc1-c1c[nH]c2ncnc(-c3ccc4cn(C)nc4c3)c12 [Example 33-2, 5-(2-methoxyphenyl)-4-(2-methyl-2H-indazol-6-yl)-7H-pyrrolo[2,3-d]pyrimidine] | 6.9 | > 1500 |  | 
19 | CCOC(=O)c1c[nH]c2ncnc(-c3ccc4c(F)n(C)nc4c3)c12 [Example 1-29, ethyl 4-(3-fluoro-2-methyl-2H-indazol-6-yl)-7H-pyrrolo[2,3-d]pyrimidine-5-carboxylate] | 8.1 |  |  | 
20 | CCOC(=O)c1c[nH]c2ncnc(-c3cccc(OCc4ccccc4)c3)c12 [Example 1-52, ethyl 4-[3-(benzyloxy)phenyl]-7H-pyrrolo[2,3-d]pyrimidine-5-carboxylate] | 3.3 |  |  | 
21 | CCOC(=O)c1c[nH]c2ncnc(-c3ccc(CO)c(N)c3)c12 [Example 1-32, ethyl 4-[3-amino-4-(hydroxymethyl)phenyl]-7H-pyrrolo[2,3-d]pyrimidine-5-carboxylate] | 8.3 |  |  | 

Other lines, results leading:

Row | IC50 (JAK3) [nM] | IC50 (JAK2) [nM] | IC50 (JAK3; given as range class) [nM] | IC50 (JAK2; given as range class) [nM] | SMILES
22 |  |  | 10 to 500 | 10 to 500 | CCOC(=O)c1c[nH]c2ncnc(-c3ccc(C(C)(C)O)cc3)c12 [Example 1-107, ethyl 4-[4-(1-hydroxy-1-methylethyl)phenyl]-7H-pyrrolo[2,3-d]pyrimidine-5-carboxylate]
23 |  |  | 10 to 500 | > 500 | CCOC(=O)c1c[nH]c2ncnc(-c3cccc(NCC(F)(F)F)c3)c12 [Example 3-1, Ethyl 4-{3-[(2,2,2-trifluoroethyl)amino]phenyl}-7H-pyrrolo[2,3-d]pyrimidine-5-carboxylate]
24 | 7.5 | 125 |  |  | CCOC(=O)c1c[nH]c2ncnc(-c3ccc(Cl)c(N)c3)c12 [Example 1-24, ethyl 4-(3-amino-4-chlorophenyl)-7H-pyrrolo[2,3-d]pyrimidine-5-carboxylate]
25 |  |  | 10 to 500 | > 500 | CCOC(=O)c1c[nH]c2ncnc(-c3cccc(C(=O)OC)c3)c12 [Example 1-8, ethyl 4-[3-(methoxycarbonyl)phenyl]-7H-pyrrolo[2,3-d]pyrimidine-5-carboxylate]
26 |  |  | 10 to 500 | > 500 | CCOC(=O)c1c[nH]c2ncnc(-c3cccc(N(C)S(C)(=O)=O)c3)c12 [Example 1-102, ethyl 4-{3-[methyl(methylsulfonyl)amino]phenyl}-7H-pyrrolo[2,3-d]pyrimidine-5-carboxylate]
27 | 1.6 | 483 |  |  | C/C=C/C(=O)Nc1cccc(-c2ncnc3[nH]cc(C(=O)OCC)c23)c1 [Example 4-6, ethyl 4-{3-[(2E)-but-2-enoylamino]phenyl}-7H-pyrrolo[2,3-d]pyrimidine-5-carboxylate]
28 |  |  | 10 to 500 | > 500 | CCOC(=O)c1c[nH]c2ncnc(-c3cccc(C(C)(C)O)c3)c12 [Example 1-105, ethyl 4-[3-(1-hydroxy-1-methylethyl)phenyl]-7H-pyrrolo[2,3-d]pyrimidine-5-carboxylate]
29 |  |  | 10 to 500 | 10 to 500 | CCOC(=O)c1c[nH]c2ncnc(-c3cccc(OC(F)F)c3)c12 [Example 1-59, ethyl 4-[3-(difluoromethoxy)phenyl]-7H-pyrrolo[2,3-d]pyrimidine-5-carboxylate]
30 |  |  | 10 to 500 | > 500 | CCOC(=O)c1c[nH]c2ncnc(-c3cccc(NC(=O)C=C(C)C)c3)c12 [Example 5-27, ethyl 4-{3-[(3-methylbut-2-enoyl)amino]phenyl}-7H-pyrrolo[2,3-d]pyrimidine-5-carboxylate]
31 | 8.4 |  |  |  | CCOC(=O)c1c[nH]c2ncnc(-c3cccc(Cl)c3)c12 [Example 1-39, ethyl 4-(3-chlorophenyl)-7H-pyrrolo[2,3-d]pyrimidine-5-carboxylate]
